Test system: 186277-243-T-J2-PDC complex spheroid viability
Experiment: Anticancer human tumor 186277-243-T-J2-PDC patient-derived colon adenocarcinoma cell line growth inhibition [GQUAD]
Conditions: for IC50: curve of first compound; for viability, T/C: stronger effect = lower value
From the text: DNA G-quadruplex Stabilizer Agents in Combinations in Complex Spheroids
A high-throughput screen of multi-cell type tumor spheroids was designed to identify active combinations of DNA G-quadruplex stabilizer agents and targeted small molecules. Complex spheroids include a stromal component modeled by human endothelial cells (HUVEC) and fibroblasts modeled by human mesenchymal stem cells (MSCs). The concentration ranges selected for each drug and investigational agent were based upon clinically achievable concentrations if the clinical Cmax of the agent was known.
Compounds. The drugs and investigational agents: pidnarulex (CX-5461; NSC782164), APTO-253 (NSC789042), BRACO-19 (NSC847499), peposertib (NSC802822), ceralasertib (NSC780249), elimusertib (NSC800525), camonsertib (NSC841442), AZD-1390 (NSC803789), olaparib (NSC753686), talazoparib (NSC767125), ART-558 (NSC835418), sotorasib (NSC818433), MRTX-1133 (NSC836407), SN-38 (NSC673596), topotecan (NSC609699), etoposide (NSC141540), doxorubicin (NSC123127), gemcitabine (NSC613327), 5-fluorouracil (NSC19893), paclitaxel (NSC125973), vemurafenib (NSC761431), panobinostat (NSC761190), R-306465 (JNJ-16241199; NSC773264), adavosertib (NSC754352), TP-3654 (NSC805149), carboplatin (NSC241240), KSQ-4279 (NSC840948), and staurosporine (NSC755774) were obtained from the National Cancer Institute (NCI) Developmental Therapeutics Program Chemical Repository (34). The FDA-approved anticancer drug set is available from the NCI Developmental Therapeutics Program. […] The stock solutions were prepared in dimethyl sulfoxide (DMSO, Sigma-Aldrich, St. Louis, MO, cat. D2650) at 800-fold the tested concentration and stored at -70 degrees C prior to their use. All drugs and investigational agents were tested over a range starting from a high concentration at or near the clinical Cmax and decreasing in half-log increments. If the clinical Cmax for an agent had not been determined, the highest concentration tested was 10 microM.
2.3 Cell Culture. All cells were maintained in an incubator at 37 degrees C and 5% CO2 with 95% humidity. The PDC lines were cultured according to standard operating procedures established by the NCI PDMR. All PDCs were thawed and cultured in Matrigel-coated flasks prepared with a working solution of 1X Ham's F-12 nutrient mix, without supplementation (Invitrogen, cat. 11765054), 100 U/mL penicillin-streptomycin (Invitrogen, cat. 15140122), and 2.5% Matrigel (Corning Inc., cat. 354248) for the first three passages. The 857933-349-R-J2-PDC line was cultured in 6C/Colon 1B media, which includes advanced DMEM/F-12 (Thermo Fisher Scientific, cat. 12634028), 10 mM HEPES (Thermo Fisher Scientific, cat. 15630080), 1X GlutaMAX supplement (Thermo Fisher Scientific, cat. 35050061), 0.1 mg/mL primocin (InvivoGen, cat. ant-pm-2), 10% defined fetal bovine serum, heat inactivated (HyClone Laboratories Inc., cat. SH30070.03HI), 50% L-WRN conditioned media (ATCC, cat. CRL-3276), 1.25 mM N-Acetyl-L-cysteine (Sigma-Aldrich, cat. A9165), 10 mM nicotinamide (Sigma-Aldrich, cat. N0636), 1X B-27 supplement (Thermo Fisher Scientific, cat. 17504044), 1X N-2 supplement (Thermo Fisher Scientific, cat. 17502048), 10 microM Y-27632 dihydrochloride (Tocris Bioscience, cat. 1254), and 50 ng/mL human EGF recombinant protein (Thermo Fisher Scientific, cat. PHG0311). The 485176-168-R4-J1-PDC line was cultured in Panc media, which includes all 6C/Colon 1B media components plus 100 ng/mL human FGF-10 (Thermo Fisher Scientific, cat. 100-26), 500 nM SB-431542 (Selleckchem, cat. S1067), and gastrin (Tocris, cat. 3006).
[…]
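Further: spheroids exposed to drugs for 7 days.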
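Wherever viability, T/C is given: 100% = DMSO vehicle control viability.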

CCCS(=O)(=O)Nc1ccc(F)c(C(=O)c2c[nH]c3ncc(-c4ccc(Cl)cc4)cc23)c1F + Cc1[nH]c2ccc(F)cc2c1-c1nc2c3cccnc3c3ncccc3c2[nH]1
IC50 (second compound 0.0316 µM): 6.01 µM | IC50 (second compound 0.1 µM): 6.44 µM | IC50 (second compound 0.316 µM): 5.92 µM | IC50 (second compound 1 µM): 6.94 µM | IC50 (second compound 3.16 µM): 5.65 µM | IC50 (second compound 10 µM): 5.28 µM | viability, T/C (second compound 0.0316 µM, first compound 0.0316 µM): 109% | viability, T/C (second compound 0.0316 µM, first compound 0.1 µM): 105% | viability, T/C (second compound 0.0316 µM, first compound 0.316 µM): 99% | viability, T/C (second compound 0.0316 µM, first compound 1 µM): 91% | viability, T/C (second compound 0.0316 µM, first compound 3.16 µM): 86% | viability, T/C (second compound 0.0316 µM, first compound 10 µM): 24.1% | viability, T/C (second compound 0.1 µM, first compound 0.0316 µM): 111% | viability, T/C (second compound 0.1 µM, first compound 0.1 µM): 107% | viability, T/C (second compound 0.1 µM, first compound 0.316 µM): 101% | viability, T/C (second compound 0.1 µM, first compound 1 µM): 103% | viability, T/C (second compound 0.1 µM, first compound 3.16 µM): 98.5% | viability, T/C (second compound 0.1 µM, first compound 10 µM): 20% | viability, T/C (second compound 0.316 µM, first compound 0.0316 µM): 111% | viability, T/C (second compound 0.316 µM, first compound 0.1 µM): 107% | viability, T/C (second compound 0.316 µM, first compound 0.316 µM): 104% | viability, T/C (second compound 0.316 µM, first compound 1 µM): 119% | viability, T/C (second compound 0.316 µM, first compound 3.16 µM): 82.7% | viability, T/C (second compound 0.316 µM, first compound 10 µM): 22.7% | viability, T/C (second compound 1 µM, first compound 0.0316 µM): 89.6% | viability, T/C (second compound 1 µM, first compound 0.1 µM): 107% | viability, T/C (second compound 1 µM, first compound 0.316 µM): 108% | viability, T/C (second compound 1 µM, first compound 1 µM): 115% | viability, T/C (second compound 1 µM, first compound 3.16 µM): 103% | viability, T/C (second compound 1 µM, first compound 10 µM): 25.3% | viability, T/C (second compound 3.16 µM, first compound 0.0316 µM): 110% | viability, T/C (second compound 3.16 µM, first compound 0.1 µM): 113% | viability, T/C (second compound 3.16 µM, first compound 0.316 µM): 97.9% | viability, T/C (second compound 3.16 µM, first compound 1 µM): 95% | viability, T/C (second compound 3.16 µM, first compound 3.16 µM): 89.8% | viability, T/C (second compound 3.16 µM, first compound 10 µM): 13.7% | viability, T/C (second compound 10 µM, first compound 0.0316 µM): 90.2% | viability, T/C (second compound 10 µM, first compound 0.1 µM): 95.9% | viability, T/C (second compound 10 µM, first compound 0.316 µM): 103% | viability, T/C (second compound 10 µM, first compound 1 µM): 98.4% | viability, T/C (second compound 10 µM, first compound 3.16 µM): 82% | viability, T/C (second compound 10 µM, first compound 10 µM): 9.98%

Source: PubChem BioAssay AID2060512 (Molecular Pharmacology Branch, DTP, NCI, 2025)
